{
  "source": "patent US20260221281A1",
  "about": "“PREDICTING PATIENT OUTCOMES RELATED TO PANCREATIC CANCER” (Valar Labs, Inc., priority 2023, published 2026)",
  "type_in_all_cases": "in vivo, human",
  "key": {"resected PDAC": {"system": "resected PDAC", "experiment": "DSS and RFS of post-operatively treated resected PDAC patients, external cohort stratified by gemcitabine-response signature (Example 4)", "settings": "external cohort (45 patients)", "text": "Digitized histological hematoxylin and cosin stained tissue microarray blocks corresponding to post-operatively treated resected PDAC patients from 2011-2015 were used in this experiment. Of the 45 patients, 22 were neoadjuvantly treated with either gemcitabine or 5-FIU backbone cytotoxic chemotherapy. Using the histologic images, the AI-based pathology platform extracted nuclei images from tissue regions using segmentation models and computed geometric features of these nuclei. Patients were stratified by the signature previously associated with gemcitabine response in a dataset into low and high risk groups, and Disease Specific Survival (DSS) and Recurrence Free Survival (RFS) was compared between the stratified groups via Kaplan Meier estimators and log-rank test."}, "[1]": {"system": "resected pancreatic ductal adenocarcinoma (PDAC)", "experiment": "DSS after adjuvant gemcitabine in resected PDAC, TCGA test set stratified by VPG signature", "text": "Data from three cohorts of patients were utilized for this experiment: a cohort of 93 patients forming a training data set, a cohort of 46 patients forming a first external data set, and a cohort of 161 patients forming a second external data set. The training data set was identified by selecting PDAC patients who had received adjuvant gemcitabine and no 5-fluorouracil. The training data set included available histopathologic images, data on disease specific survival, and demographic details. From the available histopathologic images, the image identified as the diagnostic slide was used for image analysis by the AI-based pathology platform. Scanned histologic images were analyzed through an AI-based pathology platform in accordance with the systems and methods described herein. The process included tissue segmentation, nuclei segmentation, and finally geometric feature extraction. Tissue was segmented via color-based thresholding to remove empty regions of the slide. Patches of size 2132×2132 were extracted from tissue regions and a validated deep learning model developed was used to segment and classify each nucleus automatically into five classes (i.e., Neoplastic, Connective, No-Neoplastic/Epithelial, Necrotic, Inflammatory). Descriptive morphometric features were then computed for each nucleus. Geometric features were then aggregated first at the patch, and subsequently at the patient level using summary statistics including the mean, standard deviation, skewness and kurtosis to produce the final feature vector for a patient. This feature vector was used as the input to a cox proportional hazards model that used the least absolute shrinkage and selection operator to identify the most correlated features with DSS along with their coefficients on the training set. FIG. 9 provides an illustration of a process to construct a histologic signature associated with disease-specific survival (DSS) after adjuvant gemcitabine. A dataset of scanned whole slide images and the associated clinical data from a cohort of 93 PDAC patients treated with adjuvant gemcitabine in The Cancer Genome Atlas (TCGA) was analyzed. The process to construct a histologic signature includes obtaining a slide 901, digitizing a slide 903, and determining the presence or absence of a histologic biomarker 905. Slides may be obtained in step 901 by resection of pancreatic ductal adenocarcinoma (PDAC). The slides may then then be digitized in step 903 by scanning hematoxylin and eosin-stained resection specimens for whole slide images and subsequently performing digital pathology analysis. […]"}, "[2]": {"system": "resected pancreatic ductal adenocarcinoma (PDAC)", "experiment": "DSS and time to recurrence after adjuvant gemcitabine in resected PDAC, external cohort stratified by VPG signature", "settings": "for median time to recurrence: adjuvant gemcitabine-based therapy (n=46)", "text": "The first external data set represented a set of consecutive 24 patients treated with resection and adjuvant gemcitabine. Clinical data was obtained via manual chart review of the electronic medical record. Digitally scanned tissue microarray specimens were used for image analysis. The cores were 1 mm and were obtained from formalin-fixed, paraffin-embedded (FFPE) samples of extra portions of surgical resections. Whole tissue resection specimens were not available for analysis for this study. Scanned histologic images were analyzed through an AI-based pathology platform in accordance with the systems and methods described herein. The process included tissue segmentation, nuclei segmentation, and finally geometric feature extraction. Tissue was segmented via color-based thresholding to remove empty regions of the slide. Patches of size 2132×2132 were extracted from tissue regions and a validated deep learning model developed was used to segment and classify each nucleus automatically into five classes (i.e., Neoplastic, Connective, No-Neoplastic/Epithelial, Necrotic, Inflammatory). Descriptive morphometric features were then computed for each nucleus. Geometric features were then aggregated first at the patch, and subsequently at the patient level using summary statistics including the mean, standard deviation, skewness and kurtosis to produce the final feature vector for a patient. This feature vector was used as the input to a cox proportional hazards model that used the least absolute shrinkage and selection operator to identify the most correlated features with DSS along with their coefficients on the training set. Subsequently, the performance of the signature in stratifying patients was assessed in two external validation cohorts. A first external cohort 1005 included 45 patients who underwent PDAC resection followed by gemcitabine treatment for whom digitally scanned tissue microarrays of tumor specimens were available. A second external cohort 1007 included 161 patients, whose tumors were resected between 1978 and 2008, when adjuvant treatment was not administered as part of the standard of care. To investigate performance beyond the [NT], experiments applying the model in a retrospective cohort of adjuvant-gemcitabine-treated patients and a retrospective cohort of untreated patients were performed. As illustrated in FIGS. 17A-17D, the VPG signature generalizes to external cohorts of gemcitabine-treated patients but not untreated patients."}, "resected PDAC tumors": {"system": "resected PDAC tumors", "experiment": "DSS of resected PDAC patients receiving gemcitabine, divided into two histological subtypes by the model (Example 3)", "text": "One hundred and thirty-nine (139) whole-slide digitized histological slides corresponding to one hundred and two (102) resected PDAC tumors from a data set were used as a training set. This dataset corresponded to patients that had received either gemcitabine-backbone or 5 FU-backbone chemotherapy as their first-line adjuvant treatment. An AI-based pathology platform such as the one described herein was used to extract nuclei images from tissue regions using segmentation models and compute geometric features of these nuclei. The subsequent features were then correlated with Disease Specific Survival (DSS) in order to construct a signature associated with treatment benefit. The resulting signature was compared against two board certified pathologists using the grade of the digital slides images to classify patients into above or below average DSS buckets."}},
  "data": [
    {"smiles": "Nc1ccn([C@@H]2O[C@H](CO)[C@@H](O)C2(F)F)c(=O)n1", "note": "[gemcitabine]", "values": [
      {"measurement": "median DSS", "setting": "resected PDAC; high risk group", "value": 16, "unit": "months"},
      {"measurement": "median RFS", "setting": "resected PDAC; high risk group", "value": 9.1, "unit": "months"},
      {"measurement": "median DSS", "setting": "resected PDAC; low risk group", "value": 43, "unit": "months"},
      {"measurement": "median RFS", "setting": "resected PDAC; low risk group", "value": 22.6, "unit": "months"},
      {"measurement": "median DSS", "setting": "[1]; TCGA validation subset (47 patients), negative VPG signature", "value": 16.0, "unit": "months"},
      {"measurement": "median DSS", "setting": "[1]; TCGA validation subset (47 patients), positive VPG signature", "value": 67.9, "unit": "months"},
      {"measurement": "median DSS", "setting": "[1]; sub-group of 39 validation patients with RNAseq data, negative VPG signature", "value": 16.0, "unit": "months"},
      {"measurement": "median DSS", "setting": "[1]; sub-group of 39 validation patients with RNAseq data, positive VPG signature", "value": 67.9, "unit": "months"},
      {"measurement": "median time to recurrence", "setting": "[2]; negative VPG signature", "value": 9.1, "unit": "months"},
      {"measurement": "median time to recurrence", "setting": "[2]; positive VPG signature", "value": 22.6, "unit": "months"},
      {"measurement": "median DSS", "setting": "[2]; adjuvant gemcitabine-based therapy, external cohort (n=46), negative VPG signature", "value": 16, "unit": "months"},
      {"measurement": "median DSS", "setting": "[2]; adjuvant gemcitabine-based therapy, external cohort (n=46), positive VPG signature", "value": 43.1, "unit": "months"},
      {"measurement": "median DSS", "setting": "[2]; external cohort, no therapy prior to surgery (n=24), negative VPG signature", "value": 12.9, "unit": "months"},
      {"measurement": "median DSS", "setting": "[2]; external cohort, no therapy prior to surgery (n=24), positive VPG signature", "value": 40.2, "unit": "months"},
      {"measurement": "median DSS", "setting": "resected PDAC tumors; first histological subtype (threshold: average expected lifetime)", "value": 586, "unit": "days"},
      {"measurement": "median DSS", "setting": "resected PDAC tumors; second histological subtype (threshold: average expected lifetime)", "value": 394, "unit": "days"}
    ]}
  ]
}
